Measurements taken from ChEMBL document CHEMBL6083186, “Chromenone: An emerging scaffold in anti-Alzheimer drug discovery” (Bioorg Med Chem Lett, 2024).
pIC50: −log10 of the molar value. In brackets after ≈: the same amount, converted by molar mass. Each block holds one molecule with its values, some of them ahead of it.

Legend:
[1] = Antioxidant activity assessed as DPPH radical scavenging activity; format: functional
[2] = molecular target: T1, Amine oxidase [flavin-containing] B (Homo sapiens, UniProt P27338); assay: Inhibition of MAO-B (unknown origin)
T1 sequence (P27338 whole entry): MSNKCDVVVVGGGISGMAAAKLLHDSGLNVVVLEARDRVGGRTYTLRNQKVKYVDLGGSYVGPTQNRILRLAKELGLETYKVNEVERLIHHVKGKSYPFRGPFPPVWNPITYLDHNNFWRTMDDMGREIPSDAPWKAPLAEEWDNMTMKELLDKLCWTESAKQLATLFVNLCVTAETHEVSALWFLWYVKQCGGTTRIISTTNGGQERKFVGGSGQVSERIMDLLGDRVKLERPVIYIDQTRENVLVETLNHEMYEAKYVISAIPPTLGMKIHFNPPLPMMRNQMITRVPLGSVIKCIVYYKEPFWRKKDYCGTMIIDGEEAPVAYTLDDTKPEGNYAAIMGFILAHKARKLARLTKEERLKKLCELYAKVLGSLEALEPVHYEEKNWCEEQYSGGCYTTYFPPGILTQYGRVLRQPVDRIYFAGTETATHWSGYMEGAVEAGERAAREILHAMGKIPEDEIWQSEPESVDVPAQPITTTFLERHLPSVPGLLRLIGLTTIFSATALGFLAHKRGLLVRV

Acetylcholinesterase [3] = molecular target: T2, Acetylcholinesterase (Homo sapiens, UniProt P22303); assay: Inhibition of AChE (unknown origin)
Cholinesterase [4] = molecular target: T3, Cholinesterase (Homo sapiens, UniProt P06276); assay: Inhibition of BuChE (unknown origin)
Acetylcholinesterase [5] = molecular target: T2, Acetylcholinesterase; assay: Inhibition of human AChE using […] as substrate incubated for 20 mins by DTNB reagent based Ellman's method
Homo sapiens = species: Homo sapiens; assay: Selectivity index, ratio of IC50 for human BuChE to IC50 for human AChE
Acetylcholinesterase [6] = molecular target: T2, Acetylcholinesterase; assay: Inhibition of AChE (unknown origin) by Ellman's method
Cholinesterase [7] = molecular target: T3, Cholinesterase; assay: Inhibition of BChE (unknown origin) by Ellman's method
Beta-secretase 1 [8] = molecular target: T4, Beta-secretase 1 (Homo sapiens, UniProt P56817); assay: Inhibition of BACE1 (unknown origin) using Rh-EVNLDAEFK-Quencher as substrate incubated for 1 hr by FRET assay
Cholinesterase [9] = molecular target: T3, Cholinesterase; assay: Inhibition of human BuChE using butyrylthiocholine iodide as substrate pre-incubated for 10 mins followed by substrate addition and measured for 15 mins by Ellman's method
Cholinesterase [10] = molecular target: T5, Cholinesterase (Equus caballus, UniProt P81908); assay: Inhibition of equine BuChE
Acetylcholinesterase [11] = molecular target: T2, Acetylcholinesterase; assay: Inhibition of human recombinant AChE using acetylthiocholine iodide as substrate preincubated for 15 mins followed by substrate addition measured for 10 mins DTNB reagent based Ellman's method
Beta-secretase 1 [12] = molecular target: T4, Beta-secretase 1; assay: Inhibition of BACE1 (unknown origin)
Cholinesterase [13] = molecular target: T5, Cholinesterase; assay: Inhibition of equine serum BChE using butyrylthiocholine iodide as substrate by DTNB reagent based Ellman's method
Beta-secretase 1 [14] = molecular target: T4, Beta-secretase 1; assay: Inhibition of BACE1 (unknown origin) by FRET assay
Acetylcholinesterase [15] = molecular target: Acetylcholinesterase (Electrophorus electricus, UniProt O42275); assay: Inhibition of electric eel AChE
Cholinesterase [16] = molecular target: T5, Cholinesterase; assay: Inhibition of equine BChE using BTCh as substrate incubated for 15 mins by Ellmans method

T3 sequence (P06276 whole entry): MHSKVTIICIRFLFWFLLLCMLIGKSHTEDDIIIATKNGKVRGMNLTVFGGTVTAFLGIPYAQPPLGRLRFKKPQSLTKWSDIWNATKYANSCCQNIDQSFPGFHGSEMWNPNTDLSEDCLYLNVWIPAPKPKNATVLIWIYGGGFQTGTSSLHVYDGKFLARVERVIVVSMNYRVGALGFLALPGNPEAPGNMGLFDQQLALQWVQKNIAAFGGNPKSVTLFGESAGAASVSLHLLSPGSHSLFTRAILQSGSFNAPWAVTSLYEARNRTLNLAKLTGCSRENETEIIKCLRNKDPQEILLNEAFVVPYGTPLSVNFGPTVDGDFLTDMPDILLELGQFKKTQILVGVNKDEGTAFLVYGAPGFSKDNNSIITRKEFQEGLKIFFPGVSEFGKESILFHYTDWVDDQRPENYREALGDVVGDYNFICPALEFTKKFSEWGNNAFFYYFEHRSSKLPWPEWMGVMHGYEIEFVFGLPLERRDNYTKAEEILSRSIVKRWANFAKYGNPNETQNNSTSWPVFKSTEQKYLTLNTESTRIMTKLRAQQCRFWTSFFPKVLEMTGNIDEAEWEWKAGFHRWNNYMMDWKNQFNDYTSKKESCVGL
T4 sequence (P56817 whole entry): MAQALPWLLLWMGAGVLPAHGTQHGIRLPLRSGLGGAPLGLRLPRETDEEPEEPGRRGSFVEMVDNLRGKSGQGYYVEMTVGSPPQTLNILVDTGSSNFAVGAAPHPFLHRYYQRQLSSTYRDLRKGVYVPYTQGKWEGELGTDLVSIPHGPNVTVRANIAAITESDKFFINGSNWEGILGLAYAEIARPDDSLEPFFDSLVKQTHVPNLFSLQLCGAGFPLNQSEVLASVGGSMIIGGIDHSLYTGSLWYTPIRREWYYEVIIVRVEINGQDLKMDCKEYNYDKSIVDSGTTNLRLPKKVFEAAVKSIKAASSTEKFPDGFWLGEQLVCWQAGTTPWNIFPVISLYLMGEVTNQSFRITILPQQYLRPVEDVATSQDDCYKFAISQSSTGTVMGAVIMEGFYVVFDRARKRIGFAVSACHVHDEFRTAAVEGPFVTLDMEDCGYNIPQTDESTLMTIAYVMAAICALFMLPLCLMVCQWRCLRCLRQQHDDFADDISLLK
T5 sequence (P81908 whole entry): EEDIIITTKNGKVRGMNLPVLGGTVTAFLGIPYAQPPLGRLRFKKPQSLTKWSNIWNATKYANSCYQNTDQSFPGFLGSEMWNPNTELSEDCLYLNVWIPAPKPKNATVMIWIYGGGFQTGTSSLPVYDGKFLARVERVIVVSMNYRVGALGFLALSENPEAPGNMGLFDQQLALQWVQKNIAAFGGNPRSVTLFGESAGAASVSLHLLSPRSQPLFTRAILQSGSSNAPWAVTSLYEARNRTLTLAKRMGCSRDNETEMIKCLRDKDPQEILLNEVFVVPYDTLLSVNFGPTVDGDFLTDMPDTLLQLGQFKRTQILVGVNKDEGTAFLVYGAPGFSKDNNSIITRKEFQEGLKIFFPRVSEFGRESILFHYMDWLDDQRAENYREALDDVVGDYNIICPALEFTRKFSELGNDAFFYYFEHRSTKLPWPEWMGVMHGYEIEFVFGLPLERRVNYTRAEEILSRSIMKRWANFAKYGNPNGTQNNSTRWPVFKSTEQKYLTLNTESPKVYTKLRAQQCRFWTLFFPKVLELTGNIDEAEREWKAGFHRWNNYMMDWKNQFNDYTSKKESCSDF
T2 sequence (P22303 whole entry): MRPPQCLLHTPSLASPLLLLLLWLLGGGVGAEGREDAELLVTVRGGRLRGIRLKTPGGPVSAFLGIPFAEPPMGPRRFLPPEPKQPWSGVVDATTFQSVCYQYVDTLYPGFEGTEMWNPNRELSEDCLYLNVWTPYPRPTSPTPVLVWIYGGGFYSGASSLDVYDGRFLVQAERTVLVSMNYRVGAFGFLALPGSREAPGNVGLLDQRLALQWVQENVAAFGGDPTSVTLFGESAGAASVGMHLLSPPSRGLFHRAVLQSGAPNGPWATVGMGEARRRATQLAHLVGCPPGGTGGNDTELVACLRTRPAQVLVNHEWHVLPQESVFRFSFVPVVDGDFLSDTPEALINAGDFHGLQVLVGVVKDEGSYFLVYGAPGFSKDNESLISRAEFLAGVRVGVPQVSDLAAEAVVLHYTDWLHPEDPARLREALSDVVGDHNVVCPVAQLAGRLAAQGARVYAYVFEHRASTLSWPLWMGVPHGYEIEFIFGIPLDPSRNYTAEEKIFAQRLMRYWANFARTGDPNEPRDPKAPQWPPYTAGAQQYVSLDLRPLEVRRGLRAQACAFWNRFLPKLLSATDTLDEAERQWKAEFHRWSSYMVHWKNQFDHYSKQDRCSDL
Acetylcholinesterase (Electrophorus electricus, UniProt O42275), sequence (O42275 whole entry): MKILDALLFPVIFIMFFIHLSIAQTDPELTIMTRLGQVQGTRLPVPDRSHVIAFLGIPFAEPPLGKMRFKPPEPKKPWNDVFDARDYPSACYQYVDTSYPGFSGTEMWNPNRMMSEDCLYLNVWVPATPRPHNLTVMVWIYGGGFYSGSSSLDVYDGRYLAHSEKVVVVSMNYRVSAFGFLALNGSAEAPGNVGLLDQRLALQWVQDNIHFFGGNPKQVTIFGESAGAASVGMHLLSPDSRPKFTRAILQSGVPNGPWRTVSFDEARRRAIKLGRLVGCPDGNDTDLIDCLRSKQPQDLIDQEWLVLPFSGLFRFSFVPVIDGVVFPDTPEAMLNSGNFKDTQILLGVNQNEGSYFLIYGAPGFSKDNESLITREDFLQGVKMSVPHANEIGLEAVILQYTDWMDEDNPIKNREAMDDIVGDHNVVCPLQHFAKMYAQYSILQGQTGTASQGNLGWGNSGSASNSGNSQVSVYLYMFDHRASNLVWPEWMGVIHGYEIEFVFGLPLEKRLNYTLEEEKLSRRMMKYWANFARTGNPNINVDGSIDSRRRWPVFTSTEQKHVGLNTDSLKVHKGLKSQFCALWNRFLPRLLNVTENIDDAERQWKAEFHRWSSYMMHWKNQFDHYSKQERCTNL

IC50 [1]: 10.52 mg/L (≈ 59.7 µM)
SMILES: O=C1O[C@H]([C@@H](O)CO)C(O)=C1O [ASCORBIC ACID]

SMILES: O=C1CCOc2ccc(OCCN3CCCCCC3)cc21
pIC50 [2]: 5.95
pIC50 (Acetylcholinesterase [3]): 5.31
pIC50 (Cholinesterase [4]): 4.86

SMILES: Cc1cc(=O)oc2cc(OCc3nnc(-c4ccc(O)c(O)c4)o3)ccc12
pIC50 (Acetylcholinesterase [5]): 4.53
Ratio IC50 (Homo sapiens): 1.55

SMILES: COc1cc2ccc(=O)oc2cc1O [SCOPOLETIN]
pIC50 (Acetylcholinesterase [6]): 3.81
pIC50 (Cholinesterase [7]): 3.80
pIC50 (Beta-secretase 1 [8]): 3.80

SMILES: Cc1cc(=O)oc2cc(OCC(=O)N/N=C\c3ccc(C(=O)O)cc3)ccc12
pIC50 (Acetylcholinesterase [6]): 6.10

SMILES: COc1cc(OC)c2c(=O)c(OCCCCn3cc(CN4C(=O)C(=O)c5ccccc54)nn3)c(-c3ccc(OC)c(OC)c3)oc2c1
pIC50 (Cholinesterase [7]): 4.95

IC50 [1]: 12.54 mg/L (≈ 50.1 µM)
SMILES: Cc1c(C)c2c(c(C)c1O)CCC(C)(C(=O)O)O2 (stereo not drawn) [TROLOX]

SMILES: Cc1cc(=O)oc2cc(OCc3nnc(Cc4cccc5c4OCO5)o3)ccc12
pIC50 (Cholinesterase [9]): 4.62

SMILES: COc1cccc2cc(-c3ccc(NC(=O)c4ccc(CCl)cc4)cc3)c(=O)oc12
pIC50 (Acetylcholinesterase [3]): 7.04

SMILES: COc1ccc2ccc(=O)oc2c1 [HERNIARIN]
pIC50 (Acetylcholinesterase [6]): 3.98
pIC50 (Cholinesterase [7]): 3.92
pIC50 (Beta-secretase 1 [8]): 3.76

SMILES: COc1cccc2cc(-c3ccc(NC(=O)c4ccc(F)cc4)cc3)c(=O)oc12
pIC50 (Cholinesterase [10]): 6.26

SMILES: CC(C)c1cc2cc3ccc(=O)oc3cc2o1
pIC50 (Acetylcholinesterase [11]): 4.06

SMILES: COc1cc2oc(=O)ccc2cc1O [ISOSCOPOLETIN]
pIC50 (Acetylcholinesterase [6]): 3.76
pIC50 (Cholinesterase [7]): 3.96
pIC50 (Beta-secretase 1 [8]): 3.83

SMILES: O=C(NCCCN1CCOCC1)c1cc2ccc(OCc3cn(Cc4cccc(Cl)c4Cl)nn3)cc2oc1=O
pIC50 (Beta-secretase 1 [12]): 4.68
pIC50 (Cholinesterase [13]): 5.77

SMILES: COc1cccc2cc(C(=O)NCc3cnnn3Cc3ccccc3Cl)c(=O)oc12
pIC50 (Beta-secretase 1 [14]): 4.02
pIC50 (Acetylcholinesterase [15]): 4.81

SMILES: O=C(O)c1cc2ccc(=O)oc2cc1O
pIC50 (Acetylcholinesterase [6]): 3.84
pIC50 (Cholinesterase [7]): 4.57
pIC50 (Beta-secretase 1 [8]): 6.47

SMILES: COc1cc(Cn2cc(COc3ccc4ccc(=O)oc4c3C(C)=O)nn2)cc(OC)c1
pIC50 (Acetylcholinesterase [6]): 5.59
pIC50 (Cholinesterase [7]): 5.49
pIC50 (Beta-secretase 1 [12]): 4.97

SMILES: O=c1ccc2ccc(O)cc2o1 [UMBELLIFERONE]
pIC50 (Cholinesterase [7]): 3.98
pIC50 (Beta-secretase 1 [8]): 3.84

SMILES: O=c1ccc2cc(O)c(O)cc2o1 [ESCULETIN]
pIC50 (Acetylcholinesterase [6]): 5.21
pIC50 (Cholinesterase [7]): 5.06

SMILES: O=C1OC2=C(O)C(O)=CCC2C=C1c1ccc(O)c(O)c1 (stereo not drawn)
pIC50 (Acetylcholinesterase [3]): 5.52

SMILES: Cc1cc(=O)oc2cc(OCc3nnc(-c4cc(O)c(O)c(O)c4)o3)ccc12
pIC50 (Acetylcholinesterase [5]): 4.54
Ratio IC50 (Homo sapiens): 1.65

SMILES: O=c1oc2ccccc2cc1-c1ccc(Br)cc1
pIC50 (Acetylcholinesterase [3]): 4.72

SMILES: O=c1c(O)c(-c2ccc(O)c(O)c2)oc2cc(O)cc(O)c12 [QUERCETIN]
IC50 [1]: 3.18 mg/L (≈ 10.5 µM)

SMILES: COc1cc2cc(-c3ccc(CN(C)Cc4ccccc4)cc3)c(=O)oc2cc1OC
pIC50 (Cholinesterase [16]): 4.31

SMILES: O=c1oc2c(O)cccc2cc1-c1ccccc1
pIC50 (Cholinesterase [10]): 4.88
